Values of other authors as cited in publication PMC6594753, “Cystic fibrosis drug ivacaftor stimulates CFTR channels at picomolar concentrations” (eLife, 2019).

Test system: CFTR
Set-up: method as in Yeh et al., 2019
Conditions: ref Yeh et al., 2019; cited from earlier work

SMILES: CC1(C)Cc2c(sc(NC(=O)c3ccn[nH]3)c2C(N)=O)C(C)(C)O1 [GLPG-1837]
- Hill coefficients of dose response curves for activation: close to unity
